These results are taken from ChEMBL document CHEMBL4219198, “Peptidomimetic nitrile inhibitors of malarial protease falcipain-2 with high selectivity against human cathepsins” (Bioorg Med Chem Lett, 2018).

By EC50 is commonly meant the concentration giving half of the maximal effect. A lower EC50 goes with an effect from little substance. One may read the IC50 as the concentration that inhibits the measured activity by half. Lower therefore signals greater potency. A word on the CC50: it is the concentration that lowers cell viability or growth by half.

For one series, the system named is Plasmodium falciparum. Put plainly: Antimalarial activity against Plasmodium falciparum infected in human erythrocytes. The class given is functional, organism-based.
The target of the next series is Cathepsin B (Homo sapiens, UniProt P07858). Put plainly: Inhibition of human cathepsin B.
For another series, the target named is Cathepsin S (Homo sapiens, UniProt P25774). Put plainly: Inhibition of human cathepsin S.
The target in the next series is T1, Falcipain 2 (Plasmodium falciparum, UniProt Q9N6S8).
T1 sequence (Q9N6S8 whole entry): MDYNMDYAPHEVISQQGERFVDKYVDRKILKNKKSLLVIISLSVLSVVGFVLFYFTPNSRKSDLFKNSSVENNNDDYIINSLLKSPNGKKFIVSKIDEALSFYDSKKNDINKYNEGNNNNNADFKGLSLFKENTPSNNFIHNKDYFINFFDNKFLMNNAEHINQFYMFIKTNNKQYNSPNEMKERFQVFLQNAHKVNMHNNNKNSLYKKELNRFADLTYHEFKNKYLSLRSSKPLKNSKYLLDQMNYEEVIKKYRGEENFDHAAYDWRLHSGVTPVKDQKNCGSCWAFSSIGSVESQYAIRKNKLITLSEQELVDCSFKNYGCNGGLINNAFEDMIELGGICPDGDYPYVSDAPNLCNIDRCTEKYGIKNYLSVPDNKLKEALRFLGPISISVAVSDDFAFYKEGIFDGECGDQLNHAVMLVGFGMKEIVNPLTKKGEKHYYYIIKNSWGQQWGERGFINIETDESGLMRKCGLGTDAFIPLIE
Put plainly: Inhibition of Plasmodium falciparum falcipain-2.

In another series the target is Procathepsin L (Homo sapiens, UniProt P07711). Put plainly: Inhibition of human cathepsin L.
In another series the target is T2, Cathepsin K (Homo sapiens, UniProt P43235).
T2 sequence (P43235 whole entry): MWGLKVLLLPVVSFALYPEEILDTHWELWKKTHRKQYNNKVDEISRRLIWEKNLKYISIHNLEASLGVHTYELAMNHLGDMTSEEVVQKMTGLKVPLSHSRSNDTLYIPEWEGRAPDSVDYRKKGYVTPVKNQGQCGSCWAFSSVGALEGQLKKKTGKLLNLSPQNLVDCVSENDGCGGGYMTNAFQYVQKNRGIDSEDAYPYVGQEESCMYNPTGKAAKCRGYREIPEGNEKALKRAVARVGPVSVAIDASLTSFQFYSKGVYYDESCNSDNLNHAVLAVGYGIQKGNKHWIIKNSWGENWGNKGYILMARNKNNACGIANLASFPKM
Put plainly: Inhibition of human cathepsin K.

A short description of series [1]: Selectivity ratio of IC50 for human cathepsin K to IC50 for Plasmodium falciparum falcipain-2.
A short description of series [2]: Selectivity ratio of IC50 for human cathepsin S to IC50 for Plasmodium falciparum falcipain-2.
Series [3] can be described thus: Selectivity ratio of IC50 for human cathepsin L to IC50 for Plasmodium falciparum falcipain-2.
The nature of series [4]: Selectivity ratio of IC50 for human cathepsin B to IC50 for Plasmodium falciparum falcipain-2.
Series [5] can be described thus: Cytotoxicity against human HeLa cells assessed as reduction in cell viability. The class given is cell-based.
Series [6] can be described thus: Cytotoxicity against HUVEC assessed as reduction in cell viability. The following applies: human, HUVEC cells. The class given is cell-based.

Cathepsin S, sequence (P25774 whole entry): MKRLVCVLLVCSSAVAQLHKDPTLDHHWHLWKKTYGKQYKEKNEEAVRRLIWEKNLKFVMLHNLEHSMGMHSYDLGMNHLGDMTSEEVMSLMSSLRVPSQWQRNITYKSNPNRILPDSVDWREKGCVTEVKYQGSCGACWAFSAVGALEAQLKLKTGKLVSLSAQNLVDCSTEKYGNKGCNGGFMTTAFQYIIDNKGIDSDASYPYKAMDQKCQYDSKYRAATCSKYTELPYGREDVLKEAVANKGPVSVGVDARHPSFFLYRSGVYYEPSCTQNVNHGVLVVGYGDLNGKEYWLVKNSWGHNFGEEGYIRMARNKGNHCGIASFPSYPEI
Procathepsin L, sequence (P07711 whole entry): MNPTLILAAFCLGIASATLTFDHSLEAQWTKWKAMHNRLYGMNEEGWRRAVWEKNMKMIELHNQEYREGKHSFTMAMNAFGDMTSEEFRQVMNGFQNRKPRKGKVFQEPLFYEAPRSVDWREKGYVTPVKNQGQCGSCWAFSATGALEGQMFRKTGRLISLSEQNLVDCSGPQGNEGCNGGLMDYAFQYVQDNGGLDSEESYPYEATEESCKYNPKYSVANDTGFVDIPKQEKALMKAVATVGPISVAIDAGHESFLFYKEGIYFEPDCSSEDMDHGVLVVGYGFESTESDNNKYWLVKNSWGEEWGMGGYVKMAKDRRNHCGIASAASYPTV

The molecule `CC(C)C[C@H](NC(=O)c1ccc(-c2ccccc2)cc1)C(=O)NC1(C#N)CCS(=O)(=O)CC1` returned an EC50 in the series on Plasmodium falciparum above 25000 nM. The IC50 on Cathepsin B was 2500 nM; on Cathepsin S, 1.1 nM; at Falcipain 2, 8 nM; at Procathepsin L it was 99 nM; at Cathepsin K it was 0.11 nM.
In the case of `N#CC1(NC(=O)[C@H](Cc2ccc(O[C@@H]3CCNC3)cc2)NC(=O)c2ccc(-c3ccccc3)cc2)CC1`, the IC50 is 2240 nM at Cathepsin B; 3580 nM against Cathepsin S; 1590 nM on Falcipain 2; 300 nM at Procathepsin L; 2690 nM against Cathepsin K.
As to `N#CC1(NC(=O)[C@H](Cc2cscn2)NC(=O)c2ccc(-c3ccccc3)cc2)CC1`, the IC50 against Cathepsin B was 2370 nM; on Cathepsin S it was 2370 nM; against Falcipain 2, 137 nM; on Procathepsin L, above 5000 nM; on Cathepsin K, 435 nM.
As to `N#CC1(NC(=O)[C@H](Cc2cccnc2)NC(=O)c2cccc(-c3ncc[nH]3)c2)CC1`, a half-maximal response in the series on Plasmodium falciparum (EC50) required 2000 nM. Further, the Ratio IC50 in series [1] was 718; in [2], 76; in series [3], 128; in [4] it was above 1850. The molecule further came in with an IC50 against Falcipain 2 of 2.7 nM. The CC50 in series [5] and in series [6] was above 16000 nM each time.
In the case of `N#CC1(NC(=O)[C@H](Cc2cccnc2)NC(=O)c2cccc(-c3cn[nH]c3)c2)CC1`, in the series on Plasmodium falciparum, the EC50 stood at 2000 nM. Besides, the Ratio IC50 in series [1] is 2350; in [2] it was 42; in series [3], 349; in series [4], above 4170. This molecule also had an IC50 at Falcipain 2 of 1.2 nM. Also, the CC50 in series [5] and in series [6] was above 16000 nM throughout.
In the case of `N#CC1(NC(=O)[C@H](Cc2nc3ccccc3s2)NC(=O)c2ccc(-c3ccccc3)cc2)CC1`, the IC50 at Cathepsin B is above 5000 nM; at Cathepsin S, 18 nM; against Falcipain 2, above 5000 nM; against Procathepsin L it was 334 nM; against Cathepsin K it was above 5000 nM.
Consider `N#CC1(NC(=O)[C@H](CCCCCN)NC(=O)c2ccc(-c3ccccc3)cc2)CC1`, for which the IC50 against Falcipain 2 is above 5000 nM.
Take `CN(C)c1ccc(C[C@H](NC(=O)c2ccc(-c3ccccc3)cc2)C(=O)NC2(C#N)CC2)cc1`: the IC50 was 715 nM against Cathepsin B, above 5000 nM on Falcipain 2, above 5000 nM against Procathepsin L and above 5000 nM against Cathepsin K.
`CC(C)C[C@H](NC(=O)c1ccc(-c2ccccc2)cc1)C(=O)NC1(C#N)CC1`: the IC50 against Cathepsin B came out at 1720 nM; at Cathepsin S it was 85 nM; on Falcipain 2, 27 nM; at Procathepsin L, 492 nM; on Cathepsin K, 1.3 nM.
`N#CC1(NC(=O)[C@@H](Cc2cccnc2)NC(=O)c2ccc(-c3ccccc3)cc2)CC1`: the IC50 on Cathepsin B is above 50000 nM; on Cathepsin S it was above 5000 nM; against Falcipain 2, above 5000 nM; on Procathepsin L, above 5000 nM; at Cathepsin K it was above 5000 nM.
Regarding `N#CC1(NC(=O)[C@H](CCCCN)NC(=O)c2ccc(-c3ccccc3)cc2)CC1`, the concentration for half-maximal inhibition (IC50) at Cathepsin B is 1270 nM; against Cathepsin S, above 5000 nM; at Falcipain 2, above 5000 nM; on Procathepsin L, above 5000 nM; against Cathepsin K, above 5000 nM.
Take `N#CC1(NC(=O)[C@H](Cc2cccnc2)NC(=O)c2cccc(-n3cnnn3)c2)CC1`: it took 2000 nM to reach a half-maximal effect with Plasmodium falciparum (EC50). In addition, the Ratio IC50 in [1] was 1360; in series [2] it was 35; in series [3], 574; in series [4] it was above 1670. Besides, 3 nM corresponded to half-maximal inhibition against Falcipain 2 (IC50). For the same molecule, the CC50 in [5] and in [6] was above 16000 nM throughout.
As to `CN1CCN(Cc2ccc(-c3cncc(C(=O)N[C@@H](Cc4cccnc4)C(=O)NC4(C#N)CC4)c3)cc2)CC1`, it took 2000 nM to reach a half-maximal effect in the series with Plasmodium falciparum (EC50). Besides, the Ratio IC50 in series [1] was above 2080; in [2] it was 552; in series [3], 45; in series [4], above 2080. In addition, the IC50 on Falcipain 2 was determined as 2.4 nM. The CC50 in [5] and in series [6] was above 16000 nM each time.
Consider `CN1CCN(Cc2ccc(C(=O)N[C@@H](Cc3cccnc3)C(=O)NC3(C#N)CCS(=O)(=O)CC3)s2)CC1`, for which the Ratio IC50 in [1] is 34; in series [2], 7; in series [3] it was 6; in series [4] it was above 90. Besides, the IC50 against Falcipain 2 was 55.4 nM.
With `CS(=O)(=O)c1cccc(-c2cccc(C(=O)N[C@@H](Cc3cccnc3)C(=O)NC3(C#N)CC3)c2)c1`, the Ratio IC50 in series [1] is 180; in [2], 26; in [3], 302; in series [4], above 610. The molecule also returned an IC50 against Falcipain 2 of 8.2 nM.
Take `Cn1nc(C(F)(F)F)cc1-c1ccc(C(=O)N[C@@H](Cc2cccnc2)C(=O)NC2(C#N)CCS(=O)(=O)CC2)s1`: the Ratio IC50 in series [1] is 107; in series [2], 9; in series [3], 679; in series [4], above 793. Further, the IC50 against Falcipain 2 is 6.3 nM.
Take `CN1CCN(Cc2ccc(C(=O)N[C@@H](Cc3cccnc3)C(=O)NC3(C#N)CC3)s2)CC1`: the Ratio IC50 was 34 in series [1], 32 in series [2], 14 in series [3] and above 192 in [4]. Besides, it took 25.9 nM to reach half-maximal inhibition against Falcipain 2 (IC50).
In the case of `N#CC1(NC(=O)[C@H](Cc2ccccc2)NC(=O)c2ccc(-c3ccccc3)cc2)CC1`, the IC50 at Cathepsin B is 2210 nM; against Cathepsin S, 283 nM; against Falcipain 2 it was 667 nM; at Procathepsin L, 635 nM; at Cathepsin K it was 213 nM.
As to `N#CC1(NC(=O)[C@H](Cc2ccncc2)NC(=O)c2ccc(-c3ccccc3)cc2)CC1`, the IC50 at Cathepsin B is above 5000 nM; on Cathepsin S it was 710 nM; against Falcipain 2 it was above 5000 nM; on Procathepsin L, 755 nM; at Cathepsin K, 867 nM.
On to `CN1CCN(C(=O)C[C@H](NC(=O)c2ccc(-c3ccccc3)cc2)C(=O)NC2(C#N)CC2)CC1`, for which the IC50 against Cathepsin B, on Cathepsin S, on Falcipain 2, at Procathepsin L and at Cathepsin K was above 5000 nM throughout.
In the case of `N#CC1(NC(=O)[C@H](Cc2ccccn2)NC(=O)c2ccc(-c3ccccc3)cc2)CC1`, the half-maximal inhibitory concentration (IC50) was above 5000 nM against Cathepsin B; above 5000 nM against Cathepsin S; above 5000 nM on Falcipain 2; above 5000 nM at Procathepsin L; 3830 nM against Cathepsin K.
`CC(C)C[C@H](NC(=O)c1ccc(CN2CCN(C)CC2)cc1)C(=O)NC1(C#N)CCS(=O)(=O)CC1` had an EC50 in the series with Plasmodium falciparum of 2700 nM. The IC50 was determined as 2320 nM against Cathepsin B; 1 nM at Cathepsin S; 57 nM against Falcipain 2; 4 nM on Procathepsin L; 1 nM against Cathepsin K.
In the case of `N#CC1(NC(=O)C(Cc2ccc(Cl)nc2)NC(=O)c2ccc(-c3ccccc3)cc2)CC1` (stereo not given), the IC50 on Cathepsin B is above 5000 nM; on Cathepsin S, 190 nM; at Falcipain 2 it was 230 nM; against Procathepsin L, 4280 nM; against Cathepsin K it was above 5000 nM.
As for `CN1CCCC(c2cccc(C(=O)N[C@@H](Cc3cccnc3)C(=O)NC3(C#N)CC3)c2)C1` (stereo not given in full), the Ratio IC50 in [1] was 170; in series [2], 202; in series [3], 61; in [4], above 581. The IC50 against Falcipain 2 was 8.6 nM.
Regarding `COc1ccc(CC(NC(=O)c2ccc(-c3ccccc3)cc2)C(=O)NC2(C#N)CC2)cn1` (stereo not given), the IC50 is 4080 nM at Cathepsin B; 195 nM on Cathepsin S; 178 nM against Falcipain 2; 2630 nM on Procathepsin L; above 5000 nM on Cathepsin K.
Consider `Cn1nc(C(F)(F)F)cc1-c1ccc(C(=O)N[C@@H](Cc2cccnc2)C(=O)NC2(C#N)CC2)s1`, for which the Ratio IC50 is 212 in series [1], 30 in series [2], 1240 in series [3] and above 2270 in [4]. The IC50 at Falcipain 2 was determined as 2.2 nM.
In the series with Plasmodium falciparum, `CC(C)CN(NC(=O)c1ccc(CN2CCN(C)CC2)cc1)c1nc(C#N)ncc1Br` displayed an EC50 of 61 nM. Further, the IC50 against Cathepsin B was 987 nM; against Cathepsin S, 30 nM; against Falcipain 2, 0.6 nM; against Procathepsin L, 0.7 nM; against Cathepsin K it was 0.2 nM.
For `N#CC1(NC(=O)[C@H](Cc2c[nH]c3ccc(O)cc23)NC(=O)c2ccc(-c3ccccc3)cc2)CC1`, the IC50 against Cathepsin B stood at 1100 nM; against Cathepsin S, 253 nM; on Falcipain 2, 192 nM; on Procathepsin L it was 494 nM; against Cathepsin K, 1870 nM.
